Assay results: patent US20260007681A1, “INDOLE DERIVATIVES AS ESTROGEN RECEPTOR DEGRADERS” (REGENTS OF THE UNIVERSITY OF MICHIGAN, priority 2022, published 2026)

How the values were obtained:
[1] = target: ERα_LBD(GST) (Homo sapiens (Human), UniProt P03372); test: IC50 measurements for binding to ERα_LBD (GST), LanthaScreen TR-FRET ERα competitive binding assay; conditions: 4 nM ERα_LBD(GST), 3 nM Fluormone ES2 Green tracer, 60 min; read-out: ERα HTRF IC50
Experimental: • 1. ERα_LBD(GST) protein: 4 nM • 2. Tb Anti-GST: 2 nM • 3. Fluormone ES2 Green tracer: 3 nM • 4. Incubation time: 60 min • 5. DMSO: 1% • 6. Assay buffer: Adding 1M DTT to Nuclear receptor Buffer K for final 5 mM DTT. • 7. ZPE: 1% DMSO • 8. HPE: 1 μM ARV_471 • 9. LanthaScreen® TR-FRET ERα Competitive Binding Assay (ThermoFisher, #A15887)
• 1) Cherry pick 2 μL 10 mM compound stock to column 1 of a 384 intermediate plate • 2) Add 18 μL DMSO to column 1 to dilute compound to 1 mM. • 3) Transfer 10 μL 1 mM compound to column 1 of a LDV plate. • 4) Add 6 μl DMSO to column 2-10 of the LDV plate. • 5) Compounds undergo 3-fold serial dilution (3 μL+6 μL) in DMSO. • 6) Transfer 120 nL compound solution to assay plate. • ZPE: 120 nL 100% DMSO
Prepare complete nuclear receptor buffer K by adding 1 M DTT to nuclear receptor buffer K for a final concentration of 5 mM DTT. Complete nuclear receptor buffer K must be prepared fresh daily. Prepare 2X protein solution using complete nuclear receptor buffer K containing 8 nM ERα_LBD(GST) and 4 nM Tb Anti-GST. Then, prepare 2× Fluormone ES2 Green tracer (6 nM) using complete nuclear receptor buffer K. Add 6 μL 2× Fluormone ES2 green tracer into a compound plate (PerkinElmer 6008289) by dragonfly with one-tips-addition. Subsequently, add 6 μL 2× protein solution into the plate. Briefly and gently mix the 384-well plate on a plate shaker and incubate at room temperature protected from light for 60 min. The plate is sealed with a cover to minimize evaporation. Read the plate at wavelengths of 520 nm and 495 nm. Calculate the TR-FRET ratio by dividing the emission signal at 520 nm by the emission signal at 495 nm. Generate a binding curve by plotting the emission ratio vs. the log [ligand]. To determine the IC50 value, fit the data using XL-fit for a sigmoidal dose-response.

[2] = target: ER in T47D cells (Homo sapiens (Human), UniProt P03372); test: In-cell western (ICW) ER degradation assay in T47D cells (Compounds A1-A70); type: cell-based; conditions: T47D cells, 16 hrs treatment; for DC50: ER degradation, 0.02 to 300 nM; for Dmax: T47D, read-out: T47D ICW Dmax (%)
ER in T47D cells, sequence (P03372 whole entry): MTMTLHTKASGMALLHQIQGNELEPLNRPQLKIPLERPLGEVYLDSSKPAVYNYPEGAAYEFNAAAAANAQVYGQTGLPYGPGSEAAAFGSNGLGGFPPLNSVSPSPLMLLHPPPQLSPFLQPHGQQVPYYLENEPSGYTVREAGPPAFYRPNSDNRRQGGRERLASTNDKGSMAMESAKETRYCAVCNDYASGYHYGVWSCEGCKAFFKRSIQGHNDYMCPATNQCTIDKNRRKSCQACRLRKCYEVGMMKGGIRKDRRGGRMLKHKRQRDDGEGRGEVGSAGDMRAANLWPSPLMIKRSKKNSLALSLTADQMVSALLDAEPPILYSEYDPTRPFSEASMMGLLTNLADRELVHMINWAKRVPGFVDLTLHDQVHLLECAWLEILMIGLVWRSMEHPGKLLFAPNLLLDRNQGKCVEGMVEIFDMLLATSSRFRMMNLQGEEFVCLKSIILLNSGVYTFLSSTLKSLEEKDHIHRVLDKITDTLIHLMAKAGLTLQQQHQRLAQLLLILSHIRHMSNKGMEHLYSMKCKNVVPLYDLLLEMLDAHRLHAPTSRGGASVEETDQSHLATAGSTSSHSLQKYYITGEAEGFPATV

[3] = target: CRBN/DDB1 (Homo sapiens (Human), UniProt Q96SW2); type: binding; conditions: His tagged CRBN+DDB-DLS7+CXU4, Cy5-labeled Thalidomide probe, one hour incubation; read-out: CRBN HTRF IC50
CRBN/DDB1, sequence (Q96SW2 whole entry): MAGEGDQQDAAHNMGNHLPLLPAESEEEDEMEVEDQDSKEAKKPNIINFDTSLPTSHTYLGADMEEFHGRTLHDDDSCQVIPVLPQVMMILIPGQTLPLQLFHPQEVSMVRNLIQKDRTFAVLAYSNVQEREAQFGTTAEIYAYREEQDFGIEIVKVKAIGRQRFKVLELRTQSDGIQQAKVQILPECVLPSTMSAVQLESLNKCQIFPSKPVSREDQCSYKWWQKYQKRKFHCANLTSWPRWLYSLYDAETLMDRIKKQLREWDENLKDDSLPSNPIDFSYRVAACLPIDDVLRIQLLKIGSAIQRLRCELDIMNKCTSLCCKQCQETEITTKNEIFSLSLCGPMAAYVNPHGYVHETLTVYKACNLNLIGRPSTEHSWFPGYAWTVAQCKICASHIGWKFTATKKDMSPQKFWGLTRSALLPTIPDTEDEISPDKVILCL
CRBN/DDB1, sequence (Q16531 whole entry partner): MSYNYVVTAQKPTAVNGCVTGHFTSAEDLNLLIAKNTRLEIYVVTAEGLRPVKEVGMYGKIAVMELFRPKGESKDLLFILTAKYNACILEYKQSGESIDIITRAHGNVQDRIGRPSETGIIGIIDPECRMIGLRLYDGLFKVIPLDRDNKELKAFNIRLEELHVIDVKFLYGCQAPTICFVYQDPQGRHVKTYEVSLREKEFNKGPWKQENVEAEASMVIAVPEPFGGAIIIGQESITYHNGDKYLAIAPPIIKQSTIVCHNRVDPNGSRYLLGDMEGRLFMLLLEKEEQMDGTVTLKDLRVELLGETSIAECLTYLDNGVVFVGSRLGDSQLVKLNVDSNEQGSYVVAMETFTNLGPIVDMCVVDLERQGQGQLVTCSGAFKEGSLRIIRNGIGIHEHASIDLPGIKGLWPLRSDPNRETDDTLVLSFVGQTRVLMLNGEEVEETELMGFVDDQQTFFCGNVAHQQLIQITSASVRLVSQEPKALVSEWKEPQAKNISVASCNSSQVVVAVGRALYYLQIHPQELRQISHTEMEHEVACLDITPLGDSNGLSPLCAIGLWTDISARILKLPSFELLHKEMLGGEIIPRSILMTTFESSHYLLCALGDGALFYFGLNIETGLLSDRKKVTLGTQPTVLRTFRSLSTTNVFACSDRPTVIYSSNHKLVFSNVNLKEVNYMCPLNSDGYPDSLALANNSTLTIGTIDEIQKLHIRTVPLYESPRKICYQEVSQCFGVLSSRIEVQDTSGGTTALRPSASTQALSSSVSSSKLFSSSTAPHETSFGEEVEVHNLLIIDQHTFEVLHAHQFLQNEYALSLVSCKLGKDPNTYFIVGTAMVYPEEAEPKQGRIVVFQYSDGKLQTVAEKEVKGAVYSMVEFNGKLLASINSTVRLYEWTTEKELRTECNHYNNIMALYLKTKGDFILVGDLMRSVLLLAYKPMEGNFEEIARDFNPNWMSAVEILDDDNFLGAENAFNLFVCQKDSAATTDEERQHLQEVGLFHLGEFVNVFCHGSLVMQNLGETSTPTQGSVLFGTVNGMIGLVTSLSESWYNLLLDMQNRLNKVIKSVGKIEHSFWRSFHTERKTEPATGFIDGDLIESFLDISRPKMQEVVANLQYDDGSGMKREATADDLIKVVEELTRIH
Experimental: The binding potency was determined using H-TRF assay technology (Perkin Elmer). Compounds were serially diluted in DMSO and 0.2 μL volume was transferred to white 384-well plate.

[4] = target: ER in MCF-7 cells (Homo sapiens (Human), UniProt P03372); test: In-cell western (ICW) ER degradation assay in MCF-7 cells (Compounds A1-A70); type: cell-based; conditions: MCF-7 cells, 16 hrs treatment; for DC50: ER degradation, 0.02 to 300 nM, read-out: MCF7 ICW DC50; for Dmax: MCF7, maximal ER degradation, read-out: MCF7 ICW Dmax (%)
ER in MCF-7 cells, sequence (P03372 whole entry): as the sequence (P03372 whole entry) above

ERα_LBD(GST), sequence (P03372 311-547): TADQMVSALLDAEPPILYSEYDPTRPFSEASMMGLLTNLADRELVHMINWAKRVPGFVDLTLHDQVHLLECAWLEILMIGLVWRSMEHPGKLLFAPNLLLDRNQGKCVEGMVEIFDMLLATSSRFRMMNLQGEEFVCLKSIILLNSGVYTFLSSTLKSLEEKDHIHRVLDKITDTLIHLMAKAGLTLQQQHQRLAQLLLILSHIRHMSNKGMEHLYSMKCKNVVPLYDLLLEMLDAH

SMILES	IC50 [1]	DC50 [2]	Dmax ([2]; maximal ER degradation)	IC50 [3]	DC50 [4]	Dmax [4]	T47D ICW Dmax (%) ([2]; maximal ER degradation)	MCF7 ICW Dmax (%) ([4]; maximal ER degradation)
C[C@H]1Cc2c([nH]c3ccccc23)[C@H](c2cnc(N3CCC4(CC3)C[C@H](CN3CCN5c6cc7c(cc6OC[C@@H]5C3)C(=O)N([C@@H]3CCC(=O)NC3=O)C7)CO4)nc2)N1CC(F)F [Compound A69, (R)-3-((S)-3-(((R)-8-(5-((1S,3S)-2-(2,2-difluoroethyl)-3-methyl-2,3,4,9-tetrahydro-1H-pyrido[3,4-b]indol-1-yl)pyrimidin-2-yl)-1-oxa-8-azaspiro[4.5]decan-3-yl)methyl)-8-oxo-1,2,3,4,4a,5,8,10-octahydro-9H-pyrazino[1′,2′:4,5][1,4]oxazino[2,3-f]isoindol-9-yl)piperidine-2,6-dione]	≥ 10 nM	< 1 nM	> 75%	50 to 500 nM	< 1 nM	> 75%	–	–
COc1cc(N2CCC(CN3CCN4c5cc6c(cc5OC[C@@H]4C3)C(=O)N([C@H]3CCC(=O)NC3=O)C6)CC2)ccc1[C@@H]1c2[nH]c3ccccc3c2C[C@@H](C)N1CC(F)F [Compound A29, (S)-3-((S)-3-((1-(4-((1R,3R)-2-(2,2-difluoroethyl)-3-methyl-2,3,4,9-tetrahydro-1H-pyrido[3,4-b]indol-1-yl)-3-methoxyphenyl)piperidin-4-yl)methyl)-8-oxo-1,2,3,4,4a,5,8,10-octahydro-9H-pyrazino[1′,2′:4,5][1,4]oxazino[2,3-f]isoindol-9-yl)piperidine-2,6-dione]	< 10 nM	< 1 nM	–	500 to 5000 nM	< 1 nM	–	A (“A”: >=75%)	B (“B”: >50% and <75%)
COc1cc(N2CCC(CN3CCN4c5ccc6c(c5OC[C@H]4C3)CN([C@@H]3CCC(=O)NC3=O)C6=O)CC2)ccc1[C@@H]1c2[nH]c3ccccc3c2C[C@@H](C)N1CC(F)F [Compound A37, (R)-3-((R)-7-((1-(4-((1R,3R)-2-(2,2-difluoroethyl)-3-methyl-2,3,4,9-tetrahydro-1H-pyrido[3,4-b]indol-1-yl)-3-methoxyphenyl)piperidin-4-yl)methyl)-1-oxo-1,3,5,5a,6,7,8,9-octahydro-2H-pyrazino[1′,2′:4,5][1,4]oxazino[2,3-e]isoindol-2-yl)piperidine-2,6-dione]	< 10 nM	< 1 nM	> 75%	> 5000 nM	< 1 nM	50 to 75%	–	–
C[C@@H]1Cc2c([nH]c3ccccc23)[C@@H](c2cnc(N3CCC4(CC3)C[C@@H](CN3CCN5c6ccc(C(=O)N[C@H]7CCC(=O)NC7=O)nc6OC[C@H]5C3)CO4)nc2)N1CC(F)F [Compound A63, (4aR)-3-((8-(5-((1R,3R)-2-(2,2-difluoroethyl)-3-methyl-2,3,4,9-tetrahydro-1H-pyrido[3,4-b]indol-1-yl)pyrimidin-2-yl)-1-oxa-8-azaspiro[4.5]decan-3-yl)methyl)-N—((S)-2,6-dioxopiperidin-3-yl)-1,2,3,4,4a,5-hexahydropyrazino[1,2-d]pyrido[2,3-b][1,4]oxazine-8-carboxamide]	≥ 10 nM	1 to 10 nM	50 to 75%	500 to 5000 nM	1 to 10 nM	50 to 75%	–	–
